Measured values reported in the supplement of paper PMC11451515.

Assays:
Test in all cases: AUC of viability dose-response curve (% viability x log10 dose units); higher = less sensitive
Conditions in all cases: 48 h
SEM cells = test system: SEM cells
How it was run: (§1)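 Medium-adapted leukemia cells in 1536-well plates, at 500 or 1000 cells/well, were incubated for 48 h at 37°C with library compounds in DMSO at 11 threefold doses from 47 μM to 0.79 nM. CellTiter-Glo One luminescence normalised per plate to DMSO and cell-free wells was fitted with a four-parameter log-logistic model over log10 doses. Area under the curve was integrated from this fit by trapezoidal rule, with curves beyond full viability scaled and failed quality-control curves removed.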

P12-Ichikawa = test system: P12-Ichikawa
How it was run: as §1

NOMO1 = test system: NOMO1
How it was run: as §1

[1] = RPMI 5 mM glucose + 10% dialyzed FBS

| Structure (SMILES) | AUC of viability dose-response curve (SEM cells; HPLM + 10% dialyzed FBS) | AUC of viability dose-response curve (SEM cells; RPMI 5 mM glucose + 10% FBS) | AUC of viability dose-response curve (SEM cells; [1]) | AUC of viability dose-response curve (P12-Ichikawa; HPLM + 10% dialyzed FBS) | AUC of viability dose-response curve (P12-Ichikawa; RPMI 5 mM glucose + 10% FBS) | AUC of viability dose-response curve (P12-Ichikawa; [1]) | AUC of viability dose-response curve (NOMO1; HPLM + 10% dialyzed FBS) | AUC of viability dose-response curve (NOMO1; RPMI 5 mM glucose + 10% FBS) | AUC of viability dose-response curve (NOMO1; [1]) |
| --- | --- | --- | --- | --- | --- | --- | --- | --- | --- |
| CNC(=O)c1cc(COc2nnc(Nc3ccc(Cl)cc3)c3ccoc23)ccn1 | 452 | 446 | 436 | 440 | 458 | 440 | 449 | 446 | 452 |
| CC1(C)NC(=O)N(c2ccc([N+](=O)[O-])c(C(F)(F)F)c2)C1=O | 404 | 454 | 461 | 424 | 410 | 371 | 439 | 431 | 407 |
| O=C(/C=C/c1cccnc1)NCCCCC1CCN(C(=O)c2ccccc2)CC1 | – | – | – | 81 | 93.4 | 98 | 102 | 125 | 113 |
| CC=CC1=C(C(=O)O)N2C(=O)[C@@H](NC(=O)[C@H](N)c3ccc(O)cc3)[C@H]2SC1.O | 395 | 460 | 447 | 415 | 416 | 429 | 370 | 342 | 376 |
| COc1ccccc1OCC(O)CN1CCN(CC(=O)Nc2c(C)cccc2C)CC1 (centres undefined) | 433 | 471 | 469 | 467 | 469 | 468 | 460 | 453 | 465 |
| CO[C@H]1C[C@H]2OC[C@@]2(OC(C)=O)[C@H]3[C@H](OC(=O)C4=CC=CC=C4)[C@]5(O)C[C@H](OC(=O)[C@H](O)[C@@H](NC(=O)OC(C)(C)C)C6=CC=CC=C6)/C(=C(/[C@@H](OC)C(=O)[C@]13C)C5(C)C)C | – | – | – | 135 | 142 | 171 | 125 | 135 | 143 |
| c1cc(N[C@@H]2CCNC2)nc(-c2cnc3ccc(-c4cn[nH]c4)cn23)c1 | 386 | 399 | 367 | 471 | 457 | 437 | 460 | 467 | 436 |
| CN(C)Cc1cccc(N/C(=C2\C(=O)Nc3cc(C(=O)N(C)C)ccc32)c2ccccc2)c1 | 420 | 394 | 411 | 455 | 453 | 458 | 418 | 433 | 444 |
| NC(=O)c1ncn([C@@H]2O[C@H](CO)[C@@H](O)[C@H]2O)c1N | 443 | 372 | 458 | 467 | 447 | 455 | 468 | 469 | 465 |
| O=C(c1ccc(C(=O)N2CCC(N3CCCC3)CC2)c(Nc2ccccc2)c1)N1CCC(N2CCCC2)CC1 | 443 | 461 | 462 | 468 | 466 | 465 | 462 | 452 | 458 |
| NC(=O)Cc1cccc(C(=O)c2ccccc2)c1N | 433 | 404 | 428 | 468 | 456 | 455 | 461 | 435 | 436 |
| COC1=CC=CC(=C1/C2=N/CC3=C(N=C(NC4=CC(=C(C=C4)C(O)=O)OC)N=C3)C5=CC=C(Cl)C=C25)F | 241 | 221 | 216 | 210 | 217 | 230 | 312 | 291 | 297 |
| COc1ccccc1N1CCN(CC(O)COc2cccc3ccccc23)CC1 (centres undefined) | 473 | 455 | 449 | 467 | 439 | 441 | 450 | 448 | 431 |
| CC(=O)[C@H]1CC[C@H]2[C@@H]3C/C=C4/C[C@@H](O)CC[C@]4(C)[C@H]3CC[C@]12C | 455 | 470 | 460 | 462 | 461 | 463 | 463 | 472 | 462 |
| CCN(CCO)CCCC(C)Nc1ccnc2cc(Cl)ccc12 (centres undefined) | – | – | – | 392 | 400 | 384 | 417 | 429 | 459 |
| O=C1N\N=C(\C[C@@H]2CCN(C2)C(=O)C3CC3)N1C4=CC=C(C=C4)C5=CC=C6OC=CC6=C5 | – | – | – | 400 | 376 | 405 | 448 | 397 | 394 |
| COc1ccc(-c2cc3c(C)nc(N)nc3n([C@H]3CC[C@H](OCCO)CC3)c2=O)cn1 | – | – | – | 351 | 299 | 304 | 286 | 322 | 278 |
| CN1\C(=C(O)/C2=C(C=C(Cl)S2)[S+]1([O-])=O)C(=O)NC3=NC=CC=C3 | – | – | – | 438 | 472 | 458 | 459 | 464 | 477 |
| Cc1ccccc1C(C(=O)NC1CCCC1)N(C(=O)Cn1cnc2ccccc21)c1cccc(F)c1 (centres undefined) | 429 | 464 | 469 | 446 | 439 | 446 | – | – | – |
| COC1=C(CC=C(C)C)C2=C(\C=C/C(=O)O2)C=C1 | – | – | – | 413 | 439 | 416 | 470 | 455 | 460 |
| NNC(=O)c1ccncc1 | – | – | – | 453 | 468 | 460 | 454 | 444 | 456 |
| CN1CCN(CC1)C/2=N/C3=CC=CC=C3NC4=C2C=C(C)S4 | 467 | 454 | 473 | 465 | 458 | 458 | – | – | – |
| CON(C)C(=O)N1\N=C(/S[C@]1(CCCN)C2=CC=CC=C2)C3=CC(=CC=C3F)F | 130 | 103 | 105 | – | – | – | – | – | – |
| O=C(O)c1nn(Cc2ccc(Cl)cc2Cl)c2ccccc12 | 387 | 400 | 375 | 423 | 412 | 379 | – | – | – |
| COc1cc2nc(N3CCN(C(=O)c4ccco4)CC3)nc(N)c2cc1OC | 332 | 383 | 377 | – | – | – | 411 | 384 | 392 |
| COc1cc([C@@H]2c3cc4c(cc3[C@@H](O[C@@H]3O[C@@H]5CO[C@@H](C)O[C@H]5[C@H](O)[C@H]3O)[C@H]3COC(=O)[C@H]23)OCO4)cc(OC)c1O | – | – | – | 268 | 239 | 244 | 345 | 314 | 311 |
